From ChEMBL document CHEMBL2021804, “Synthesis and evaluation of piperidine urea derivatives as efficacious 11β-hydroxysteroid dehydrogenase type 1 inhibitors in diabetic ob/ob mice” (Bioorg Med Chem Lett, 2012)
Each block holds one compound with its values, some of them ahead of it.

What was measured:
[1] = biological target: 11-beta-hydroxysteroid dehydrogenase 1 (Homo sapiens, UniProt P28845); test: Inhibition of human 11beta-HSD1 expressed in HEK293 cells assessed as [3H]cortisol production after 60 mins by SPA; format: cell-based
Chain of 11-beta-hydroxysteroid dehydrogenase 1 (Homo sapiens, UniProt P28845) (P28845 whole entry): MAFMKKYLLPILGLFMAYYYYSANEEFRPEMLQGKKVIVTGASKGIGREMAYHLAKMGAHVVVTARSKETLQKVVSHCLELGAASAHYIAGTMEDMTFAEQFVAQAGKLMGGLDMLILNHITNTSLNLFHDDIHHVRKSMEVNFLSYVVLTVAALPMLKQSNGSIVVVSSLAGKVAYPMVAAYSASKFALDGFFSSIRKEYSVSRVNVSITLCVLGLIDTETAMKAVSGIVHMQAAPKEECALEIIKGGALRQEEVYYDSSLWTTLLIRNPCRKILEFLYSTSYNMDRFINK

[2] = biological target: 11-beta-hydroxysteroid dehydrogenase 1 (Mus musculus, UniProt P50172); test: Inhibition of mouse 11beta-HSD1 expressed in HEK293 cells assessed as [3H]cortisol production after 60 mins by SPA; format: cell-based
Chain of 11-beta-hydroxysteroid dehydrogenase 1 (Mus musculus, UniProt P50172) (P50172 whole entry): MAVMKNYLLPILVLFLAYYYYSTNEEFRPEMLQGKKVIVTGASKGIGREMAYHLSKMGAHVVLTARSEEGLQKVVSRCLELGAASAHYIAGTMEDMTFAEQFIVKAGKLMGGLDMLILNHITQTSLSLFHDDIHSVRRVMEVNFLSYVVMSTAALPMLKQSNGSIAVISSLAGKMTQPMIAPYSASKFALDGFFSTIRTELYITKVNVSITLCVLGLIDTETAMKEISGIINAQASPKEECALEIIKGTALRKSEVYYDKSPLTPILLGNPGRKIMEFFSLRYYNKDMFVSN

HEK293 [3] = test: Selectivity ratio of IC50 for human 11beta-HSD1 expressed in HEK293 cells to IC50 for mouse 11beta-HSD1 expressed in HEK293 cells; format: cell-based
[4] = biological target: T1, 11-beta-hydroxysteroid dehydrogenase type 2 (Homo sapiens, UniProt P80365); test: Inhibition of human 11beta-HSD2 expressed in HEK293 cells assessed as [3H]cortisol production after 60 mins by SPA; format: cell-based
T1 sequence (P80365 whole entry): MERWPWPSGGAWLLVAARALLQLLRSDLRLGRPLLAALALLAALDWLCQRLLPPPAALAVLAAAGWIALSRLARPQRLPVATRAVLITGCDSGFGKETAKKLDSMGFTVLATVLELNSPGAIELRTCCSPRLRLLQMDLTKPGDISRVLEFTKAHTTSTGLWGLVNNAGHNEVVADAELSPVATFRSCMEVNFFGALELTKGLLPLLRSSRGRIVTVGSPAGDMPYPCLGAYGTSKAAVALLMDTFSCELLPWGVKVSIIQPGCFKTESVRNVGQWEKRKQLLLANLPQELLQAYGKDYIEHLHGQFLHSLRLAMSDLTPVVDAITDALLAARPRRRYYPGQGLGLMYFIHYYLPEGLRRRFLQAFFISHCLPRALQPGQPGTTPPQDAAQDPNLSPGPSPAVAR

[5] = biological target: T2, 11-beta-hydroxysteroid dehydrogenase type 2 (Mus musculus, UniProt P51661); test: Inhibition of mouse 11beta-HSD2 expressed in HEK293 cells assessed as [3H]cortisol production after 60 mins by SPA; format: cell-based
T2 sequence (P51661 whole entry): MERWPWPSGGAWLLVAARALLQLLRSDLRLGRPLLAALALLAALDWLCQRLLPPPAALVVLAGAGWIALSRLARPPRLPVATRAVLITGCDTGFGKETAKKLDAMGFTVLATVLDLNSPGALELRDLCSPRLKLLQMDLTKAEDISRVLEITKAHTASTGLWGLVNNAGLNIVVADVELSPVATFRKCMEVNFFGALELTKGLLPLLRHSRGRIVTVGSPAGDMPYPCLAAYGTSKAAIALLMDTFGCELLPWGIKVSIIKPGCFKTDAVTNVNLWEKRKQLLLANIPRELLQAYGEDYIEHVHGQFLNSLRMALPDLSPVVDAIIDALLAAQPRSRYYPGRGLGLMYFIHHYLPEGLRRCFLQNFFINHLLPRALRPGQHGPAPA

[6] = Tmax in po dosed Sprague-Dawley rat; format: ADME, organism-based; details: in vivo
[7] = Cmax in po dosed Sprague-Dawley rat; format: ADME, organism-based; set-up: route oral; details: in vivo
[8] = AUC (0 to t) in po dosed Sprague-Dawley rat; format: ADME, organism-based; details: plasma
[9] = AUC (0 to infinity) in po dosed Sprague-Dawley rat; format: ADME, organism-based; set-up: route oral, time infinity; details: plasma
[10] = Mean residence time in po dosed Sprague-Dawley rat; format: ADME, organism-based; details: in vivo
[11] = Half life in po dosed Sprague-Dawley rat; format: ADME, organism-based; details: in vivo
HEK293 [12] = test: Selectivity ratio of IC50 for human 11beta-HSD2 expressed in HEK293 cells to IC50 for human 11beta-HSD1 expressed in HEK293 cells; format: cell-based
[13] = AUC in Sprague-Dawley rat at 5 mg/kg, po; format: ADME, organism-based; set-up: dose 5 mg/kg, route oral; details: plasma
Mus musculus [14] = test: Antidiabetic activity in ob/ob mouse type 2 diabetes model assessed as reduction in nonfasting blood glucose level at 50 mg/kg, ip once daily for 5 days; format: functional; set-up: scale not given: the % may be the effect or the level left; details: route intraperitoneal
Mus musculus [15] = test: Antidiabetic activity in ob/ob mouse type 2 diabetes model assessed as reduction in fasting blood glucose level at 50 mg/kg, ip once daily for 5 days measured on day 10; format: functional; set-up: scale not given: the % may be the effect or the level left; details: route intraperitoneal
Mus musculus [16] = test: Antidiabetic activity in ob/ob mouse type 2 diabetes model assessed as reduction in fasting blood glucose level at 50 mg/kg, ip once daily for 5 days measured on day 15; format: functional; set-up: scale not given: the % may be the effect or the level left; details: route intraperitoneal
Mus musculus [17] = test: Antidiabetic activity in ob/ob mouse type 2 diabetes model assessed as reduction in fasting blood glucose level at 50 mg/kg, ip once daily for 5 days measured on day 20; format: functional; set-up: scale not given: the % may be the effect or the level left; details: route intraperitoneal
Mus musculus [18] = test: Antidiabetic activity in ob/ob mouse type 2 diabetes model assessed as reduction in blood glucose level at 50 mg/kg, ip once daily for 5 days measured on day 10; format: functional; set-up: scale not given: the % may be the effect or the level left; details: route intraperitoneal
Mus musculus [19] = test: Antidiabetic activity in ob/ob mouse type 2 diabetes model assessed as reduction in blood glucose level at 50 mg/kg, ip once daily for 5 days measured on day 15; format: functional; set-up: scale not given: the % may be the effect or the level left; details: route intraperitoneal
Mus musculus [20] = test: Antidiabetic activity in ob/ob mouse type 2 diabetes model assessed as reduction in blood glucose level at 50 mg/kg, ip once daily for 5 days measured on day 20; format: functional; set-up: scale not given: the % may be the effect or the level left; details: route intraperitoneal
Mus musculus [21] = test: Antidiabetic activity in ob/ob mouse type 2 diabetes model assessed as reduction in fasting blood glucose level at 50 mg/kg, ip once daily for 20 days; format: functional; set-up: scale not given: the % may be the effect or the level left; details: route intraperitoneal
Mus musculus [22] = test: Antidiabetic activity in ob/ob mouse type 2 diabetes model assessed as reduction in nonfasting blood glucose level at 50 mg/kg, ip once daily for 20 days; format: functional; set-up: scale not given: the % may be the effect or the level left; details: route intraperitoneal
Mus musculus [23] = test: Toxicity in ob/ob mouse type 2 diabetes model assessed as effect on body weight at 50 mg/kg, ip once daily for 20 days measured every 5 days for 20 days; format: organism-based; set-up: dose 50 mg/kg, route intraperitoneal; details: in vivo, 480 h
Mus musculus [24] = test: Toxicity in ob/ob mouse type 2 diabetes model assessed as effect on food intake at 50 mg/kg, ip once daily for 20 days measured every 4 days for 20 days; format: organism-based; set-up: dose 50 mg/kg, route intraperitoneal; details: in vivo, 480 h

EC50 [1]: 802 nM
EC50 [2]: 145 nM
SMILES: O=C(NC1CCCCCC1)c1ccc(CN2C(=O)Nc3ccc(Cl)cc3S2(=O)=O)cc1

EC50 [1]: 443 nM
EC50 [2]: 180 nM
SMILES: O=C(NC1CCCCCCC1)c1ccc(CN2C(=O)Nc3ccc(Cl)cc3S2(=O)=O)cc1

EC50 [1]: 283 nM
EC50 [2]: 17 nM
SMILES: O=C(NC1CCCCCC1)N1CCC(CN2C(=O)Nc3ccc(Cl)cc3S2(=O)=O)CC1
Ratio IC50 (HEK293 [3]): 3

EC50 [1]: 121 nM
EC50 [2]: 37 nM
EC50 [4]: 2200 nM
EC50 [5]: > 100000 nM
SMILES: O=C(N1CCC(CN2C(=O)Nc3ccc(Cl)cc3S2(=O)=O)CC1)N(C1CCCCC1)C1CC1
Ratio IC50 (HEK293 [3]): 3

EC50 [1]: 686 nM
EC50 [2]: 529 nM
SMILES: O=C(NC1CCCCC1)c1ccc(CN2C(=O)Nc3ccc(Cl)cc3S2(=O)=O)cc1

EC50 [1]: 21 nM
EC50 [2]: 0.41 nM
EC50 [4]: 860 nM
EC50 [5]: > 100000 nM
Tmax [6]: 2 h
Cmax [7]: 46.8 ng/mL
AUC(0-t) [8]: 173 ng·h/mL
AUC(0-inf) [9]: 209 ng·h/mL
MRT [10]: 4.24 h
half-life [11]: 2.3 h
AUC [13]: 147 ng·h/mL
SMILES: CN(C(=O)N1CCC(CN2C(=O)Nc3ccc(Cl)cc3S2(=O)=O)CC1)C1CCCCCC1
Ratio IC50 (HEK293 [3]): 3
Ratio IC50 (HEK293 [12]): 40
Activity (Mus musculus [14]): 25%
Activity (Mus musculus [15]): 33.3%
Activity (Mus musculus [16]): 39.4%
Activity (Mus musculus [17]): 36.1%
Activity (Mus musculus [18]): 27.9%
Activity (Mus musculus [19]): 34.6%
Activity (Mus musculus [20]): 35.6%
Activity (Mus musculus [21]): 31.4%
Activity (Mus musculus [22]): 25.7%
Activity (Mus musculus [23]): Non-toxic
Activity (Mus musculus [24]): Non-toxic

EC50 [1]: 517 nM
EC50 [2]: 10 nM
SMILES: O=C(N1CCC(CN2C(=O)Nc3ccc(Cl)cc3S2(=O)=O)CC1)N(C1CCCCCC1)C1CC1
Ratio IC50 (HEK293 [3]): 3

EC50 [1]: 158 nM
EC50 [2]: 2 nM
EC50 [4]: 720 nM
EC50 [5]: > 100000 nM
SMILES: CN(C(=O)N1CCC(CN2C(=O)Nc3ccc(Cl)cc3S2(=O)=O)CC1)C1C2CC3CC(C2)CC1C3 (configuration not stated)
Ratio IC50 (HEK293 [3]): 3

The next lines start with the compound.

SMILES: O=C(NC12CC3CC(CC(C3)C1)C2)c1ccc(CN2C(=O)Nc3ccc(Cl)cc3S2(=O)=O)cc1
EC50 [1]: 47 nM
EC50 [2]: 14 nM

SMILES: O=C(c1ccc(CN2C(=O)Nc3ccc(Cl)cc3S2(=O)=O)cc1)N(C1CCCCCC1)C1CC1
EC50 [1]: 55 nM
EC50 [2]: 84 nM

SMILES: CC1(C)[C@@H](O[C@H]2O[C@H](C(=O)O)[C@@H](O)[C@H](O)[C@H]2O[C@@H]2O[C@H](C(=O)O)[C@@H](O)[C@H](O)[C@H]2O)CC[C@]2(C)[C@H]3C(=O)C=C4[C@@H]5C[C@@](C)(C(=O)O)CC[C@]5(C)CC[C@@]4(C)[C@]3(C)CC[C@@H]12 [GLYCYRRHIZIN]
EC50 [1]: 10 nM
EC50 [2]: 8 nM

SMILES: CN(C(=O)c1cccc(CN2C(=O)Nc3ccc(Cl)cc3S2(=O)=O)c1)C1C2CC3CC(C2)CC1C3 (configuration not stated)
EC50 [1]: 4 nM
EC50 [2]: 69 nM

SMILES: O=C(c1ccc(CN2C(=O)Nc3ccc(Cl)cc3S2(=O)=O)cc1)N(C1CCCCC1)C1CC1
EC50 [1]: 60 nM
EC50 [2]: 185 nM

SMILES: O=C(c1cccc(CN2C(=O)Nc3ccc(Cl)cc3S2(=O)=O)c1)N(C1CCCCCC1)C1CC1
EC50 [1]: 1 nM
EC50 [2]: 258 nM
Tmax [6]: 2.3 h
Cmax [7]: 3.86 ng/mL
AUC(0-t) [8]: 15.5 ng·h/mL
AUC(0-inf) [9]: 16.1 ng·h/mL
MRT [10]: 4.02 h
half-life [11]: 2.02 h

SMILES: CN(C(=O)c1ccc(CN2C(=O)Nc3ccc(Cl)cc3S2(=O)=O)cc1)C1CCCCCC1
EC50 [1]: 90 nM
EC50 [2]: 210 nM

SMILES: CN(C(=O)c1cccc(CN2C(=O)Nc3ccc(Cl)cc3S2(=O)=O)c1)C1CCCCCC1
EC50 [1]: 4 nM
EC50 [2]: 401 nM

SMILES: CN(C(=O)c1ccc(CN2C(=O)Nc3ccc(Cl)cc3S2(=O)=O)cc1)C12CC3CC(CC(C3)C1)C2
EC50 [1]: 70 nM
EC50 [2]: 55 nM

SMILES: O=C(c1cccc(CN2C(=O)Nc3ccc(Cl)cc3S2(=O)=O)c1)N(C1CCCCC1)C1CC1
EC50 [1]: 3 nM
EC50 [2]: 58 nM
